From BindingDB's records for doi:10.1016/j.bmcl.2004.10.092 (F. Hoffmann-La Roche, 2005)
pKi: −log10 of the molar value.

Legend:
Assay in all cases: Serine Protease Inhibition Assay
Prothrombin = Prothrombin (Homo sapiens, UniProt P00734)
Procedure: (§1) The enzyme reactions were initiated by the addition of substrate, and the color developed from the release of p-nitroanilide from each chromogenic substrate was monitored continuously for 5 min at 405 nm on a microtiter plate reader. […] The apparent Ki values were then calculated according to the Cheng-Prusoff equation: Ki = IC50/1 + [S]/Km.

Coagulation factor X = Coagulation factor X (Homo sapiens, UniProt P00742)
Procedure: as §1

Serine protease 1 = target: T1, Serine protease 1 (Bos taurus, UniProt P00760)
T1 sequence (P00760 whole entry): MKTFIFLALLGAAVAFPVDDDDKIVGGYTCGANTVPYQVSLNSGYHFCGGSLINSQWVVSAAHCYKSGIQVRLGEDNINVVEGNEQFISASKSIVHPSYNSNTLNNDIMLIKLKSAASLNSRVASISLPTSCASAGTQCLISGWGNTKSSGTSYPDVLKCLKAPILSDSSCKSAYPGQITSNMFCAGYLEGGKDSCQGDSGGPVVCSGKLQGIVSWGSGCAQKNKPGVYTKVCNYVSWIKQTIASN
Procedure: as §1

Coagulation factor VII = target: T2, Coagulation factor VII (Homo sapiens, UniProt P08709); details: pH 7.8; 22 °C
T2 sequence (P08709 whole entry): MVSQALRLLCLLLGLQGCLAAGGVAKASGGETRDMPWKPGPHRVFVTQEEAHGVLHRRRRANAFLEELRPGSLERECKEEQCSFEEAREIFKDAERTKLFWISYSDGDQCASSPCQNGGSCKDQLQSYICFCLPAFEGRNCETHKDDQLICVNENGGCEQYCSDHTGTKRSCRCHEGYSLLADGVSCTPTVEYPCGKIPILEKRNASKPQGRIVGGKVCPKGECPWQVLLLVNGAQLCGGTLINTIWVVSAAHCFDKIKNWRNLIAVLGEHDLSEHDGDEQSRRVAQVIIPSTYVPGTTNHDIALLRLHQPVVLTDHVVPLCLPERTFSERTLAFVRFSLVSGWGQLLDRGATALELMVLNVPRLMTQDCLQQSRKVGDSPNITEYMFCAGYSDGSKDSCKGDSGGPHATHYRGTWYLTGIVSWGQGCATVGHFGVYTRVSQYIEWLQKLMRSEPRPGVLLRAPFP
Procedure: as §1

Chain of Coagulation factor X (P00742 41-179 limits assumed): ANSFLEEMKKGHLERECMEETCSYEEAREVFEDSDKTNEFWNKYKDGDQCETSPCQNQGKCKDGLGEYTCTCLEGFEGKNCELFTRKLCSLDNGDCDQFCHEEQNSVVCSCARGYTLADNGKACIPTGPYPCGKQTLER
Chain of Coagulation factor X (P00742 235-488 limits assumed): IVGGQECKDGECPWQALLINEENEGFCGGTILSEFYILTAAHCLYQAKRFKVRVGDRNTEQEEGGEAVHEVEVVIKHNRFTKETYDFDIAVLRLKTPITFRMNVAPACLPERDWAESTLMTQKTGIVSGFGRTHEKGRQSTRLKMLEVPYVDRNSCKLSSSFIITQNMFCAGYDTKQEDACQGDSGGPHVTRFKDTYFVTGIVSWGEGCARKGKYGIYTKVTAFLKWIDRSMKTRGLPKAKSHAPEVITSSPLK

| pKi (Prothrombin) | pKi (Coagulation factor X) | pKi (Serine protease 1) | pKi (Coagulation factor VII) | Compound |
| --- | --- | --- | --- | --- |
| 5.19 | 4.72 | 7.10 | 8.15 | COc1cc(C(Nc2ccc(C(=N)N)cc2)C(=O)N[C@H](C(=O)O)c2ccccc2)c(C(=O)Cc2ccccc2)cc1OCc1ccccc1 (stereo partly drawn) [(2S)-2-{2-[4-(benzyloxy)-5-methoxy-2-(2-phenylacetyl)phenyl]-2-[(4-carbamimidoylphenyl)amino]acetamido}-2-phenylacetic acid] |
| 6.27 | 4.91 | 7.30 |  | COc1cc(C(Nc2ccc(C(=N)N)cc2)C(=O)N[C@H](C(=O)O)c2ccccc2)c(S(=O)(=O)c2ccccc2)cc1OCc1ccccc1 (some centres not stated) [phenylglycine amide compound 10] |
